Measurements: patent publication US12060351B2, “Thiadiazole IRAK4 inhibitors” (Gilead Sciences, Inc., priority 2018, dated 2024)
Like-named read-outs stand apart in the source and are kept apart here.

What was measured:
TNFα = assay: IRAK4 Monocyte TNFα Cell Based Assay (LPS-stimulated, TR-FRET TNFα detection); set-up: species or system human; conditions: Homo sapiens, Monocyte, read-out: EC50 MONO TNF HTRF
In short: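 Monocytes (5,000 cells/well) treated with compound (0.1% DMSO) for 1 hour at 37° C, then stimulated with 50 pg/ml LPS for 4 hours. TNFα in medium quantified by TR-FRET two-antibody detection after overnight room-temperature incubation. Percent of control calculated against unstimulated (0%) and LPS-stimulated (100%) cells.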

IRAK4 enzyme = biological target: T1, IRAK4 enzyme (Homo sapiens, UniProt Q9NWZ3); assay: IRAK4 Biochemical Assay (TR-FRET, STK1 KinEASE); conditions: 500 μM ATP, Table 2 second part (compounds 33-343), read-out: IC50 IRAK4-HTBS
T1 construct: purchased Carna Biosciences, Chuo-ku, Kobe, Japan
T1 sequence (Q9NWZ3 1-460): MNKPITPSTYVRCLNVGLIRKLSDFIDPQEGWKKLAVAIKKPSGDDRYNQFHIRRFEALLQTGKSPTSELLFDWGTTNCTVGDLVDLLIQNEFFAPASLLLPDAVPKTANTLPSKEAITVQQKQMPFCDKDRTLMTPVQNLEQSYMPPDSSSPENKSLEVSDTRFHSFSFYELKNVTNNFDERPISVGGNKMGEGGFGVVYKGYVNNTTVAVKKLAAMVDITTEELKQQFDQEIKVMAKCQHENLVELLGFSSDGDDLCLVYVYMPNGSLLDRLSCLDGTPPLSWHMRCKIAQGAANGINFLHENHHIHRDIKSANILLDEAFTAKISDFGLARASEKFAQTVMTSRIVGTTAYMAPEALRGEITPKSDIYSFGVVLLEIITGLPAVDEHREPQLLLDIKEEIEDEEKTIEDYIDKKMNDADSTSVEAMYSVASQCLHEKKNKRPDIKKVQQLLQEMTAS
In short: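 Human IRAK4 (0.75 nM) preincubated 15 min with compound and 2 μM STK1 peptide, then reacted 120 min at room temperature with 500 μM ATP in HEPES pH 7.0 buffer with MgCl2 and DTT. EDTA stop with Cryptate anti-phosphopeptide antibody and tracer, 60 min; TR-FRET read as 665/615 nm ratio.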

[1] = human monocytes, LPS-stimulated, Table 2 second part (compounds 33-343)

Compound	EC50 (TNFα; [1])	IC50 (IRAK4 enzyme)	EC50 (TNFα)
CC(=O)N[C@H]1CC[C@H](c2nnc(-c3cnc(-c4ccc5cc(C#N)cnn45)cc3NC34CCC(O)(CC3)CC4)s2)CC1 [Compound 241, N-((1r,4r)-4-(5-(6-(3-cyanopyrrolo[1,2-b]pyridazin-7-yl)-4-((4-hydroxybicyclo[2.2.2]octan-1-yl)amino)pyridin-3-yl)-1,3,4-thiadiazol-2-yl)cyclohexyl)acctamide]	4.8 nM	1.39 nM	–
CC(C)Nc1cc(-c2ccc3cc(C#N)cnn23)ncc1-c1nnc(N2C[C@H]3CC[C@@H](C2)[C@@H]3NS(C)(=O)=O)s1 [Example 58, N-((1R,5S,8s)-3-(5-(6-(3-cyanopyrrolo[1,2-b]pyridazin-7-yl)-4-(isopropylamino)pyridin-3-yl)-1,3,4-thiadiazol-2-yl)-3-azabicyclo[3.2.1]octan-8-yl)methanesulfonamide]	9.3 nM	1.88 nM	–
CC(=O)N[C@@H]1C[C@H]2CC[C@@H](C1)N2c1nnc(-c2cnc(-c3ccc4cc(C#N)cnn34)cc2NC(C)C)s1 [Example 56, N-((1R,3s,5S)-8-(5-(6-(3-cyanopyrrolo[1,2-b]pyridazin-7-yl)-4-(isopropylamino)pyridin-3-yl)-1,3,4-thiadiazol-2-yl)-8-azabicyclo[3.2.1]octan-3-yl)acetamide]	–	0.49 nM	8.3 nM
N#Cc1cnn2c(-c3cc(NC4CCOCC4)c(-c4nnc([C@H]5CC[C@H](NC(=O)C6CC6)CC5)s4)cn3)ccc2c1 [Example 156, N-((1r,4r)-4-(5-(6-(3-cyanopyrrolo[1,2-b]pyridazin-7-yl)-4-((tetrahydro-2H-pyran-4-yl)amino)pyridin-3-yl)-1,3,4-thiadiazol-2-yl)cyclohexyl)cyclopropanecarboxamide]	10.9 nM	1.42 nM	–
CC(C)Nc1cc(-c2ccc3cc(C#N)cnn23)ncc1-c1nnc(C(=O)N[C@H]2C[C@](C)(O)C2)s1 [Example 219, 5-(6-(3-cyanopyrrolo[1,2-b]pyridazin-7-yl)-4-(isopropylamino)pyridin-3-yl)-N-((1r,3r)-3-hydroxy-3-methylcyclobutyl)-1,3,4-thiadiazole-2-carboxamide]	2070 nM	0.68 nM	–
CC1(Nc2cc(-c3ccc4cc(C#N)cnn34)ncc2-c2nnc(N3C[C@H]4CC[C@@H](C3)[C@@H]4NC(=O)C(C)(C)O)s2)COC1 [Example 210, N-((1R,5S,8s)-3-(5-(6-(3-cyanopyrrolo[1,2-b]pyridazin-7-yl)-4-((3-methyloxetan-3-yl)amino)pyridin-3-yl)-1,3,4-thiadiazol-2-yl)-3-azabicyclo[3.2.1]octan-8-yl)-2-hydroxy-2-methylpropanamide]	2.8 nM	0.84 nM	–
CC(C)Nc1cc(-c2ccc3cc(C#N)cnn23)ncc1-c1nnc(N2CCS(=N)(=O)CC2)s1 [Compound 262, 7-(5-(5-(1-imino-1-oxido-116-thiomorpholino)-1,3,4-thiadiazol-2-yl)-4-(isopropylamino)pyridin-2-yl)pyrrolo[1,2-b]pyridazine-3-carbonitrile]	69.9 nM	3.81 nM	–
CC(C)Nc1cc(-c2ccc3cc(C#N)cnn23)ncc1-c1nnc(N2C[C@H]3CC[C@@H](C2)[C@@H]3Nc2ncccc2F)s1 [Compound 309, 7-(5-(5-((1R,5S,8s)-8-((3-fluoropyridin-2-yl)amino)-3-azabicyclo[3.2.1]octan-3-yl)-1,3,4-thiadiazol-2-yl)-4-(isopropylamino)pyridin-2-yl)pyrrolo[1,2-b]pyridazine-3-carbonitrile]	687 nM	29.4 nM	–
CNc1cc(-c2ccc3cc(C#N)cnn23)ncc1-c1nnc([C@H]2C[C@H](NC(C)=O)C2)s1 [Example 282, N-((1r,3r)-3-(5-(6-(3-cyanopyrrolo[1,2-b]pyridazin-7-yl)-4-(methylamino)pyridin-3-yl)-1,3,4-thiadiazol-2-yl)cyclobutyl)acetamide]	22.4 nM	0.59 nM	–

The next lines start with results.

EC50 (TNFα; [1])	IC50 (IRAK4 enzyme)	Compound	EC50 (TNFα)
8.5 nM	0.97 nM	CC(C)Nc1cc(-c2ccc3cc(C#N)cnn23)ncc1-c1nnc(N2C[C@H]3CC[C@@H](C2)[C@@H]3N)s1 [Example 60, 7-(5-(5-((1R,5S,8s)-8-amino-3-azabicyclo[3.2.1]octan-3-yl)-1,3,4-thiadiazol-2-yl)-4-(isopropylamino)pyridin-2-yl)pyrrolo[1,2-b]pyridazine-3-carbonitrile]	–
3.1 nM	0.34 nM	COC(=O)NC[C@H]1C[C@H](Nc2cc(-c3ccc4cc(C#N)cnn34)ncc2-c2nnc([C@H]3CC[C@H](NC(=O)N4CCOCC4)CC3)s2)C1 [Example 143, methyl (((1R,3r)-3-((2-(3-cyanopyrrolo[1,2-b]pyridazin-7-yl)-5-(5-((1r,4R)-4-(morpholine-4-carboxamido)cyclohexyl)-1,3,4-thiadiazol-2-yl)pyridin-4-yl)amino)cyclobutyl)methyl)carbamate]	–
7.8 nM	0.89 nM	CC(C)Nc1cc(-c2ccc3cc(C#N)cnn23)ncc1-c1nnc(N2C3CC2CN(C(=O)CN=S(C)(C)=O)C3)s1 [Compound 276, 7-(5-(5-(3-(2-((dimethyl(oxo)-16-sulfanylidene)amino)acetyl)-3,6-diazabicyclo[3.1.1]heptan-6-yl)-1,3,4-thiadiazol-2-yl)-4-(isopropylamino)pyridin-2-yl)pyrrolo[1,2-b]pyridazinc-3-carbonitrile]	–
14.1 nM	0.61 nM	CC(=O)N[C@H]1CC[C@H](c2nnc(-c3cnc(-c4ccc5cc(C#N)cnn45)cc3NC3(C)CCOCC3)s2)CC1 [Compound 268, N-((1r,4r)-4-(5-(6-(3-cyanopyrrolo[1,2-b]pyridazin-7-yl)-4-((4-methyltetrahydro-2H-pyran-4-yl)amino)pyridin-3-yl)-1,3,4-thiadiazol-2-yl)cyclohexyl)acetamide]	–
5.2 nM	0.46 nM	CC(C)Nc1cc(-c2ccc3cc(C#N)cnn23)ncc1-c1nnc(N2C[C@H]3CC[C@@H](C2)[C@@H]3NC(=O)C2CC2)s1 [Example 150, N-((1R,5S,8s)-3-(5-(6-(3-cyanopyrrolo[1,2-b]pyridazin-7-yl)-4-(isopropylamino)pyridin-3-yl)-1,3,4-thiadiazol-2-yl)-3-azabicyclo[3.2.1]octan-8-yl)cyclopropanecarboxamide]	–
10.4 nM	0.89 nM	CC(=O)N[C@H]1[C@@H]2CC[C@H]1CN(c1nnc(-c3cnc(-c4ccc5cc(C#N)cnn45)cc3NC(C)C)s1)C2 [Example 39, N-((1R,5S,8r)-3-(5-(6-(3-cyanopyrrolo[1,2-b]pyridazin-7-yl)-4-(isopropylamino)pyridin-3-yl)-1,3,4-thiadiazol-2-yl)-3-azabicyclo[3.2.1]octan-8-yl)acetamide]	–
16.2 nM	0.33 nM	CC(=O)NC[C@H]1C[C@H](c2nnc(-c3cnc(-c4ccc5cc(C#N)cnn45)cc3NC(C)C)s2)C1 [Compound 290, N-(((1r,3r)-3-(5-(6-(3-cyanopyrrolo[1,2-b]pyridazin-7-yl)-4-(isopropylamino)pyridin-3-yl)-1,3,4-thiadiazol-2-yl)cyclobutyl)methyl)acetamide]	–
4 nM	0.9 nM	CC(C)Nc1cc(-c2ccc3cc(C#N)cnn23)ncc1-c1nnc(N2C[C@H]3CC[C@@H](C2)[C@@H]3NC(=O)C2(C)COC2)s1 [Example 94, N-((1R,5S,8s)-3-(5-(6-(3-cyanopyrrolo[1,2-b]pyridazin-7-yl)-4-(isopropylamino)pyridin-3-yl)-1,3,4-thiadiazol-2-yl)-3-azabicyclo[3.2.1]octan-8-yl)-3-methyloxetane-3-carboxamide]	–
4.1 nM	0.82 nM	COC(=O)NC[C@H]1C[C@H](Nc2cc(-c3ccc4cc(C#N)cnn34)ncc2-c2nnc(N3C[C@H]4CC[C@@H](C3)[C@@H]4NC(C)=O)s2)C1 [Example 52, methyl (((1R,3r)-3-((5-(5-((1R,5S,8S)-8-acetamido-3-azabicyclo[3.2.1]octan-3-yl)-1,3,4-thiadiazol-2-yl)-2-(3-cyanopyrrolo[1,2-b]pyridazin-7-yl)pyridin-4-yl)amino)cyclobutyl)methyl)carbamate]	–
14.7 nM	1.97 nM	COC(=O)N[C@@H]1[C@@H]2CC[C@H]1CN(c1nnc(-c3cnc(-c4ccc5cc(C#N)cnn45)cc3NC(C)C)s1)C2 [Example 59, methyl ((1R,5S,8s)-3-(5-(6-(3-cyanopyrrolo[1,2-b]pyridazin-7-yl)-4-(isopropylamino)pyridin-3-yl)-1,3,4-thiadiazol-2-yl)-3-azabicyclo[3.2.1]octan-8-yl)carbamate]	–
4.9 nM	0.11 nM	CC(=O)N[C@@H]1[C@@H]2CN(c3nnc(-c4cnc(-c5ccc6cc(C#N)cnn56)cc4NC(C)C)s3)C[C@@H]21 [Compound 239, N-((1R,5S,6r)-3-(5-(6-(3-cyanopyrrolo[1,2-b]pyridazin-7-yl)-4-(isopropylamino)pyridin-3-yl)-1,3,4-thiadiazol-2-yl)-3-azabicyclo[3.1.0]hexan-6-yl)acetamide]	–
